Source: patent publication US7112584B2, “Nonsteroidal antiinflammatory agents” (Schering AG, priority 2002, dated 2006)
Read-outs that look alike come from different tables or passages of the source.

Tests used:
[1] = tested on: secretion of cytokine IL-8 in human monocyte cell line THP-1; experiment: inhibition of LPS-triggered IL-8 secretion in THP-1 cells (ELISA); format: cell-based; parameters: Inhibition of IL-8 Secretion Efficacy: concentration or dose not given beside the values; conditions: THP-1, LPS-triggered; for IC50: Homo sapiens
Protocol: The concentration of the cytokines was determined in the supernatant with use of commercially available ELISA kits.
The potency of the inflammation inhibition is determined by the inhibition of the secretion of cytokine IL-8 in a cellular test. […] The concentration of the cytokine was determined in the supernatant by commercially available ELISA kits. In this connection, the compounds of formula I show a high to very high potency and action (>50%) in the inhibition (see Table 4). The potency of the racemates is considerably lower than that of the pure enantiomers.

human GR = target: T1, human GR (Homo sapiens, UniProt P04150); experiment: glucocorticoid receptor (GR) binding test, cytosol of Sf9 cells, [3H]-dexamethasone; conditions: human GR from Sf9 cytosol
T1 construct: made in house; host or cells: Sf9 cells infected with recombinant baculovirus (cytosol preparation)
T1 sequence (P04150 1-777): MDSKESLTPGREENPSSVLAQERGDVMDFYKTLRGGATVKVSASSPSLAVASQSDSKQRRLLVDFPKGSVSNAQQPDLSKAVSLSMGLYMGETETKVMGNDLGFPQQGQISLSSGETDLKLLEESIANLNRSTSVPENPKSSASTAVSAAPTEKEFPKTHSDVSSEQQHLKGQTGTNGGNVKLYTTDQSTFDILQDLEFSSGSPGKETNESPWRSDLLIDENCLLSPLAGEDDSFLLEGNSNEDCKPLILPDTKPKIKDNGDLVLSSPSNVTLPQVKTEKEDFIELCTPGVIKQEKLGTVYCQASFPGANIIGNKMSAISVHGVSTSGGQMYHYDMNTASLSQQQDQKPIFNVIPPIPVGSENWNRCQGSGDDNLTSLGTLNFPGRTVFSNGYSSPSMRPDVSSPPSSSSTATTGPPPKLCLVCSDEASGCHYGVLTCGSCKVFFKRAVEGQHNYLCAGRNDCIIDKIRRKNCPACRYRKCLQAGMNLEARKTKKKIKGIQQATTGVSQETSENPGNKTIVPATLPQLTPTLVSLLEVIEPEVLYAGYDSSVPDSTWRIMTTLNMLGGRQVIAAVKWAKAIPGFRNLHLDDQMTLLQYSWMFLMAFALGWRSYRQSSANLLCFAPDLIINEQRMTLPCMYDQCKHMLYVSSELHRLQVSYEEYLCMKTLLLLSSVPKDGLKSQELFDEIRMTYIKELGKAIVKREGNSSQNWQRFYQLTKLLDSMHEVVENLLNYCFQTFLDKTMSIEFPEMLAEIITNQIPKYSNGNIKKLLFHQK
Description: The binding of substances to the glucocorticoid receptor (GR) is examined with the aid of a recombinantly produced receptor. Cytosol preparations of Sf9 cells, which had been infected with recombinant baculoviruses, which code for the GR, are used for the binding studies.

GR (IL-6 promoter) = target: T2, GR (IL-6 promoter) (Homo sapiens, UniProt P04150); experiment: reporter gene test in HeLa cells, transrepression, IL-6 promoter-luciferase; conditions: for Emax: HeLa, read-out: Transrepression (TR)(IL-6-Promoter) Efficacy
T2 sequence (P04150 1-777): T1 sequence (P04150 1-777)
Protocol: (§1) The MMTV promoter (transactivation) and the IL-6 promoter (transrepression) in each case were upstream to the gene that codes for the luciferase. By means of the photometric determination of the enzyme activity of the luciferase, it was possible to measure the activation of the transcription (MMTV-promoter-construct) or the inhibition of the transcription (IL-6-promoter-construct) by the GR.
(§2) This dissociation of the mechanisms of action was determined with the aid of the reporter gene test in stable transfixed human HeLa cells. To determine the transactivation induced by the GR, the MMTV promoter, which is set before a luciferase gene, is used. Via the photometric determination of the luciferase activity, it was possible to determine the transactivation activities of the GR after binding the test compounds. The inhibition of the transcription of the luciferase gene, induced by tetradecanoyl-phorbol acetate (TPA) under the control of the IL-6 promoter or the collagenase promoter (transpression) by the GR after binding the test substances, was also determined by the measurement of luciferase activity in HeLa cells.

GR (MMTV promoter) = target: T3, GR (MMTV promoter) (Homo sapiens, UniProt P04150); experiment: reporter gene test in HeLa cells, transactivation, MMTV promoter-luciferase; conditions: for TA:TR EC50:IC50: MMTV promoter EC50 : IL-6 promoter IC50
T3 sequence (P04150 1-777): T1 sequence (P04150 1-777)
Protocol: as §1, §2

[2] = tested on: tyrosinamino transferase (TAT); experiment: induction of tyrosinamino transferase (TAT) in liver homogenates; format: in vivo; conditions: mice, 8 hours after administration, vs untreated control
Description: One of the most frequent undesirable effects of a glucocorticoid therapy is the so-called “steroid diabetes” [cf. Hatz, H. J., Glucocorticoide: Immunologische Grundlagen, Pharmakologie und Therapierichtlinien [Glucocorticoids: Immunological Bases, Pharmacology and Therapy Guidelines], Wissenschaftliche Verlagsgesellschaft mbH, Stuttgart, 1998]. The reason for this is the stimulation of the gluconeogenesis in the liver by induction of the enzymes that are responsible for this effect and by free amino acids, which develop from the degradation of proteins (catabolic action of glucocorticoids). A key enzyme of the catabolic metabolism in the liver is the tyrosinamino transferase (TAT). The activity of this enzyme can be determined photometrically from liver homogenates and represents a good yardstick of the undesirable metabolic actions of the glucocorticoids. To measure the TAT induction, the animals are sacrificed 8 hours after the test substances are administered, the livers are removed, and the TAT activity in the homogenate is measured.
As parameters for the side effects of the catabolic metabolism induced by steroids, the activity of the enzyme tyrosinamino transferase (TAT) was determined by photometry from liver homogenates. The activity represents a good yardstick for the undesirable catabolic actions of the glucocorticoids. To measure the TAT induction, the animals (mice and rats) are killed 8 hours after the test substance is administered, the liver is removed, and the TAT activity is measured in the homogenates.

[3] = target: T4, GR (collagenase promoter) (Homo sapiens, UniProt P04150); experiment: reporter gene test in HeLa cells, transrepression, collagenase promoter-luciferase; format: cell-based; conditions: TPA-induced; for IC50: read-out: Transrepression (TR)(Collagenase Promoter) IC50
T4 construct: endogenous in cells; host or cells: HeLa cells stably transfected with promoter-luciferase reporters (MMTV, IL-6 or collagenase promoter)
T4 sequence (P04150 1-777): T1 sequence (P04150 1-777)

[4] = tested on: croton oil-induced inflammation; experiment: croton oil-induced ear inflammation, edema formation in mice; format: in vivo; conditions: systemic, two hours before croton oil, ear weight
Protocol: The antiinflammatory actions of the compounds of general formula I were tested in the animal experiment by tests in the croton oil-induced inflammation in rats and mice (J. Exp. Med. (1995), 182, 99–108). In this connection, croton oil in ethanolic solution was administered topically to the animals' ears. The test substances were also administered topically or systemically simultaneously with or two hours before the croton oil. After 16–24 hours, the ear weight was measured as a yardstick of the inflammatory edema, the peroxidase activity was measured as a yardstick of the invasions of granuloctyes, and the elastase activity was measured as a yardstick of the invasion of neutrophilic granuloctyes.
The antiinflammatory action of the compounds of general formula I were tested in an animal experiment in croton oil-induced inflammation in mice and in rats (J. Exp. Med. (1995), 182, 99–108). In this connection, croton oil in ethanolic solution was administered topically to the animals' ears. The test substances were systemically administered for two hours before the croton oil. After 16–24 hours, the ear weight was measured as a yardstick for the inflammatory edema.

IC50 [1] [nM]	IC50 (human GR) [nM]	IC50 (GR (IL-6 promoter)) [nM]	Emax (GR (IL-6 promoter)) [%]	Induction Factor for TAT with 3 mg/kg [2]	Induction Factor for TAT with 30 mg/kg [2]	Transrepression (TR)(Collagenase Promoter) Efficacy [3] [%]	Compound	Inhibition of IL-8 Secretion Efficacy [1] [%]	Edema Inhibition with 3 mg/kg [4] [%]	Edema Inhibition with 30 mg/kg [4] [%]	also measured
76	1.5	2	84	–	–	–	Cc1noc(=O)c2ccc(NC(=O)C(O)(CC(C)(C)c3cccc4c3OCO4)C(F)(F)F)cc12 (racemic) [Example 1, (±)-6-[4-(Benzo[1,3]dioxol-4-yl)-2-hydroxy-4-methyl-2-trifluoromethyl-valeroyl-amino]-4-methyl-2,3-benzoxazin-1-one]	51	–	–	–
42	0.85	–	–	–	–	–	Cc1noc(=O)c2ccc(NC(=O)C(O)(CC3(c4cccc5c4OCC5)CC3)C(F)(F)F)cc12 (racemic) [Example 12]	52	–	–	–
–	–	5.7	63	–	–	–	Cc1noc(=O)c2ccc(NC(=O)C(O)(CC(C)(C)c3cc(F)cc4c3OCO4)C(F)(F)F)cc12 (racemic) [Example 18]	–	–	–	melting point: 215 to 217 °C
860	2	–	–	–	–	–	Cc1noc(=O)c2ccc(NC(=O)C(O)(CC3(c4cc(F)ccc4O)CCC3)C(F)(F)F)cc12 (racemic) [Example 28]	100	–	–	melting point: 138 °C
–	14	5.4	67	–	–	–	COc1c(F)cccc1C1(CC(O)(C(=O)Nc2ccc3c(=O)onc(C)c3c2)C(F)(F)F)CCC1 (racemic) [Example 31]	–	–	–	–
37	< 0.3	–	–	–	–	–	Cc1noc(=O)c2ccc(NC(=O)C(O)(CC3(c4cccc5c4OCC5)CC3)C(F)(F)F)cc12 (single isomer, unassigned) [Example 13]	68	–	–	melting point: 249 to 255 °C
31	0.35	1.5	79	1.0	2.0	105	Cc1noc(=O)c2ccc(NC(=O)C(O)(CC3(c4cc(F)ccc4O)CCC3)C(F)(F)F)cc12 (single isomer, unassigned) [Example 29]	86	34	66	EC50 (GR (MMTV promoter)): 13 nM; Transactivating (TA)(MMTV-Promoter) Efficacy (GR (MMTV promoter); HeLa cells, luciferase): 59%; TA:TR EC50:IC50 (GR (MMTV promoter)): 8.7; IC50 [3]: 3.4 nM
–	3	2.2	76	–	–	–	COc1c(F)cccc1C1(CC(O)(C(=O)Nc2ccc3c(=O)onc(C)c3c2)C(F)(F)F)CCC1 (single isomer, unassigned) [Example 32]	–	–	–	–
29	< 0.3	0.92	66	1.4	2.4	92	Cc1noc(=O)c2ccc(NC(=O)C(O)(CC(C)(C)c3cccc4c3OCO4)C(F)(F)F)cc12 (single isomer, unassigned; (+)) [Example 2, (+)-6-[4-(Benzo[1,3]dioxol-4-yl)-2-hydroxy-4-methyl-2-trifluoromethyl-valeroyl-amino]-4-methyl-2,3-benzoxazin-1-one]	57	55	86	EC50 (GR (MMTV promoter)): 11 nM; Transactivating (TA)(MMTV-Promoter) Efficacy (GR (MMTV promoter); HeLa cells, luciferase): 71%; TA:TR EC50:IC50 (GR (MMTV promoter)): 11.9; IC50 [3]: 3.7 nM
–	–	–	–	1.2	2.4	–	Cc1noc(=O)c2ccc(NC(=O)C(O)(CC(C)(C)c3cc(Br)ccc3O)C(F)(F)F)cc12 (single isomer, unassigned; (+)) [Example 7, (+)-6-[4-(5-Bromo-2-hydroxyphenyl)-2-hydroxy-4-methyl-2-(trifluoromethyl)valeroylamino]-4-methyl-2,3-benzoxazin-1-one]	–	22	75	–
18	–	–	94	2.6	8.0	96	C[C@]12C=CC(=O)C=C1CC[C@@H]1[C@@H]2[C@@H](O)C[C@@]2(C)[C@H]1CC[C@]2(O)C(=O)CO [Prednisolone, reference compound]	92	35	84	–

Compound	IC50 [1] [nM]	IC50 (human GR) [nM]	IC50 (GR (IL-6 promoter)) [nM]	Emax (GR (IL-6 promoter)) [%]	Induction Factor for TAT with 3 mg/kg [2]	Induction Factor for TAT with 30 mg/kg [2]	Transrepression (TR)(Collagenase Promoter) Efficacy [3] [%]	Inhibition of IL-8 Secretion Efficacy [1] [%]	Edema Inhibition with 3 mg/kg [4] [%]	Edema Inhibition with 30 mg/kg [4] [%]	also measured
Cc1noc(=O)c2ccc(NC(=O)C(O)(CC(C)(C)c3cccc4ccoc34)C(F)(F)F)cc12 (single isomer, unassigned) [Example 23]	–	–	–	–	1.1	1.0	78	–	–	–	Transactivating (TA)(MMTV-Promoter) Efficacy (GR (MMTV promoter); HeLa cells, luciferase): 76%; TA:TR EC50:IC50 (GR (MMTV promoter)): 6.2; EC50 (GR (MMTV promoter); read-out: Transactivating (TA)(MMTV-Promoter) EC50, HeLa cells, luciferase): 10 nM; IC50 [3]: 4.9 nM; Transrepression (TR)(IL-6-Promoter) Efficacy (GR (IL-6 promoter); HeLa cells, TPA-induced, luciferase): 78%; IC50 (GR (IL-6 promoter); read-out: Transrepression (TR)(IL-6-Promoter) IC50, HeLa cells, TPA-induced, luciferase): 1.6 nM
